How the values were obtained:
Assay type in all cases: cell-based, human
p-CREB (S133) = assay: Immunoblot of p-CREB (S133)
Protocol: (§1) ∆K280 tauRD-DsRed SH-SY5Y cells in 6-well plates (5 × 10^5/well) were treated with retinoic acid (10 µM) on day 1, followed by LMDS-1 or -2 (10 µM) and doxycycline (2 µg/mL) addition on day 2 as described. ERK inhibitor U0126 or PI3K inhibitor wortmannin (10 μM) (LC Laboratories, Woburn, MA, USA) was added on day 6. On day 8, the cells were collected for BDNF, BCL2, BAX and total/phosphorylated TRKB, ERK, AKT, CREB protein analyses as described.
(§2) ∆K280 tauRD-DsRed SH-SY5Y cells were lysed in buffer containing 50 mM Tris-HCl (pH 8.0), 150 mM NaCl, 1 mM EDTA (pH 8.0), 1 mM EGTA (pH 8.0), 0.1% SDS, 0.5% sodium deoxycholate, 1% Triton X-100 and protease (Sigma-Aldrich)/phosphatase (Roche, Basel, Switzerland) inhibitor cocktails. After two sonications with an interval of 30 min on ice, cell lysates were collected by centrifugation at 14,000× g for 30 min at 4 °C. Protein concentrations were determined using a Bradford assay (Bio-Rad, Hercules, CA, USA). Protein samples (25 µg) were separated by 10–12% SDS-PAGE and transferred to polyvinylidene difluoride (PVDF) membranes (Sigma-Aldrich). After blocking for 2 h with 10% skimmed milk or 5% BSA in 0.1% Tween 20 in Tris-buffered saline (TBST), the membrane was incubated with primary antibody against BDNF (1:500; Santa Cruz, Santa Cruz, CA, USA), BCL2 (1:500; BioVision), BAX (1:500; BioVision), TRKB (1:1000; Cell Signaling, Danvers, MA, USA), p-TRKB (Y516) (1:1000; Cell Signaling), p-TRKB (Y817) (1:1000; Millipore, Billerica, MA, USA), ERK (1:1000; Cell Signaling), p-ERK (T202/Y204) (1:500; Cell Signaling), AKT (1:1000; Cell Signaling), p-AKT (S473) (1:1000; Cell Signaling), CREB (1:1000; Santa Cruz), p-CREB (S133) (1:1000; Millipore), JNK (1:1000; Cell Signaling), p-JNK (T183/Y185) (1:1000; Cell Signaling) or loading control glyceraldehyde-3-phosphate dehydrogenase (GAPDH) (1:1000; MDBio, Taipei, Taiwan). After three washes with TBST, the immune complexes were detected using horseradish peroxidase-conjugated goat anti-mouse or goat anti-rabbit secondary IgG antibody (1:5000, GeneTex, Irvine, CA, USA) and enhanced chemiluminescence substrates luminol and peroxide (Millipore). The primary and secondary antibodies used were diluted with TBST. The chemiluminescent detection was performed on ImageQuant™ LAS 4000mini (GE Healthcare).

CREB = assay: Immunoblot of CREB; details: 10 µM; induced untreated 83%
Protocol: as §1
(§3) ∆K280 tauRD-DsRed SH-SY5Y cells were lysed in buffer containing 50 mM Tris-HCl (pH 8.0), 150 mM NaCl, 1 mM EDTA (pH 8.0), 1 mM EGTA (pH 8.0), 0.1% SDS, 0.5% sodium deoxycholate, 1% Triton X-100 and protease (Sigma-Aldrich)/phosphatase (Roche, Basel, Switzerland) inhibitor cocktails. After two sonications with an interval of 30 min on ice, cell lysates were collected by centrifugation at 14,000× g for 30 min at 4 °C. Protein concentrations were determined using a Bradford assay (Bio-Rad, Hercules, CA, USA). Protein samples (25 µg) were separated by 10–12% SDS-PAGE and transferred to polyvinylidene difluoride (PVDF) membranes (Sigma-Aldrich). […] After three washes with TBST, the immune complexes were detected using horseradish peroxidase-conjugated goat anti-mouse or goat anti-rabbit secondary IgG antibody (1:5000, GeneTex, Irvine, CA, USA) and enhanced chemiluminescence substrates luminol and peroxide (Millipore). […]

p-AKT (S473) = assay: Immunoblot of p-AKT (S473)
Protocol: as §1, §2

BCL2 = assay: Immunoblot of BCL2; details: 10 µM; induced untreated 73%
Protocol: as §1, §3

[1] = tested on: ΔK280 tauRD-DsRed SH-SY5Y folding reporter cells; assay: High-content analysis of ΔK280 tauRD-DsRed fluorescence and cell number (folding reporter); details: BDNF at 100 ng/mL, LMDS-1/2 at 10 μM; untreated = 100%; Figure 6A
Protocol: On day 1, ∆K280 tauRD-DsRed SH-SY5Y cells were seeded in a 96-well plate (3 × 10^4/well), with retinoic acid (10 µM; Sigma-Aldrich) added to induce neuronal differentiation. […] […] For ROS measurement, dichloro-dihydro-fluorescein diacetate (DCFH-DA, 10 µM; Invitrogen, Carlsbad, CA, USA) was added to the cells on day 8 and incubated at 37 °C for 30 min.

m-BDNF (13 kDa) = assay: Immunoblot of m-BDNF; details: 10 µM; induced untreated 69%
Protocol: as §1, §3

p-ERK (T202/Y204) = assay: Immunoblot of p-ERK (T202/Y204)
Protocol: as §1, §2

[2] = 10 µM, induced untreated 78%, Figure 5C
[3] = BDNF 100 ng/mL, LMDS-1/2 10 μM, induced untreated 72%, Figure 6B

Compound | p-CREB level (p-CREB (S133); [2]) | p-CREB level (p-CREB (S133); [3]) | CREB level (CREB) | p-AKT level (p-AKT (S473); 10 µM plus wortmannin 10 μM) | p-AKT level (p-AKT (S473); 10 µM, induced untreated 72%) | BCL2 level (BCL2) | DsRed fluorescence intensity [1] | m-BDNF level (m-BDNF (13 kDa)) | p-ERK level (p-ERK (T202/Y204); 10 µM plus U0126 10 μM) | p-ERK level (p-ERK (T202/Y204); 10 µM, induced untreated 76%)
CCOc1ccc2cc(C(=O)c3ccccc3)c(=O)oc2c1 [LMDS-1] | 105–108% | 90–95% | 98–101% | 62–64% | 96–100% | 111–114% | 111–112% | 97–102% | 65–66% | 101–102%
O=C(c1ccccc1)c1cc2ccc(O)cc2oc1=O [LMDS-2] | 105–108% | 90–95% | 98–101% | 62–64% | 96–100% | 111–114% | 111–112% | 97–102% | 65–66% | 101–102%

— PMC9654711, “Neuroprotective Action of Coumarin Derivatives through Activation of TRKB-CREB-BDNF Pathway and Reduction of Caspase Activity in Neuronal Cells Expressing Pro-Aggregated Tau Protein” (International Journal of Molecular Sciences, 2022)
